# Key:
# [1] = molecular target: T1, Metabotropic glutamate receptor 4 (Homo sapiens, UniProt Q14833); test: Displacement of [3H]N-(4-chloro-3-methoxyphenyl)picolinamide from human mGlu4 receptor expressed in CHO cell membranes incubated for 30 mins by liquid scintillation counting method
# [2] = molecular target: T1, Metabotropic glutamate receptor 4; test: Positive allosteric modulator activity at human mGlu4 receptor
# Liver microsome = test: Half life in Wistar rat liver microsomes in presence of NADPH generation system by HPLC method; type: ADME
# [3] = pampa
# Description: Effective permeability by PAMPA method
# [4] = molecular target: Metabotropic glutamate receptor 4 (Rattus norvegicus, UniProt P31423); test: Positive allosteric modulator activity at rat mGlu4 receptor
# Metabotropic glutamate receptor 4 (Rattus norvegicus, UniProt P31423), sequence (P31423 whole entry): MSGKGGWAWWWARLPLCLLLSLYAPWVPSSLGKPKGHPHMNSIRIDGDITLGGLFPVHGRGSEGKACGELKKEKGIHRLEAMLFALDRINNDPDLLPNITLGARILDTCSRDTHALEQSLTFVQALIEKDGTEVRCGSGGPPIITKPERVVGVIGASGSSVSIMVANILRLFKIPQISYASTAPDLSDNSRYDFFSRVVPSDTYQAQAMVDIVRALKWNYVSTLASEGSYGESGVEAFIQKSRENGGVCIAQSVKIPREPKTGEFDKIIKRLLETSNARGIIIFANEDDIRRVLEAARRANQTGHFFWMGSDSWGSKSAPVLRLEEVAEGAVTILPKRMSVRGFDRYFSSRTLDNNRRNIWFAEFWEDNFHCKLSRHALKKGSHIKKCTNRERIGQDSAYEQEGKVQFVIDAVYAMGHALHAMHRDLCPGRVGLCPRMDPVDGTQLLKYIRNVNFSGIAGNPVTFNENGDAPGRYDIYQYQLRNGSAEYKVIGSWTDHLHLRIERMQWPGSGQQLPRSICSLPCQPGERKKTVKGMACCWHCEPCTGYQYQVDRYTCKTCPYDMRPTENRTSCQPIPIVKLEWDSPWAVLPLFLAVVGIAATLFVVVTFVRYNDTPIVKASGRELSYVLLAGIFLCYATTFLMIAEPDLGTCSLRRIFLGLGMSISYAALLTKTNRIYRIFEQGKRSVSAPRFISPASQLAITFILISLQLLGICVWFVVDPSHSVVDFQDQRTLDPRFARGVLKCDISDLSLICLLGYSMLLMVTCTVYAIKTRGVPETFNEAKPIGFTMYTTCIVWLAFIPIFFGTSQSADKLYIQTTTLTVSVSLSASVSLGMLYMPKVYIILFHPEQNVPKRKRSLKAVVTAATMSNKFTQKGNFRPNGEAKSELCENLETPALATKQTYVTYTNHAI
# [5] = molecular target: Metabotropic glutamate receptor 1 (Homo sapiens, UniProt Q13255); test: Activity at mGlu1 receptor (unknown origin) expressed in HEK293 cells by Ca2+ mobilization assay; type: functional, cell-based
# [6] = molecular target: Metabotropic glutamate receptor 8 (Homo sapiens, UniProt O00222); test: Activity at mGlu8 receptor (unknown origin) expressed in HEK293 cells pre-treated for 15 mins before addition of EC80 concentration of reference agonist for another 15 mins by cAMP accumulation assay; type: functional, cell-based
# Metabotropic glutamate receptor 8, sequence (O00222 whole entry): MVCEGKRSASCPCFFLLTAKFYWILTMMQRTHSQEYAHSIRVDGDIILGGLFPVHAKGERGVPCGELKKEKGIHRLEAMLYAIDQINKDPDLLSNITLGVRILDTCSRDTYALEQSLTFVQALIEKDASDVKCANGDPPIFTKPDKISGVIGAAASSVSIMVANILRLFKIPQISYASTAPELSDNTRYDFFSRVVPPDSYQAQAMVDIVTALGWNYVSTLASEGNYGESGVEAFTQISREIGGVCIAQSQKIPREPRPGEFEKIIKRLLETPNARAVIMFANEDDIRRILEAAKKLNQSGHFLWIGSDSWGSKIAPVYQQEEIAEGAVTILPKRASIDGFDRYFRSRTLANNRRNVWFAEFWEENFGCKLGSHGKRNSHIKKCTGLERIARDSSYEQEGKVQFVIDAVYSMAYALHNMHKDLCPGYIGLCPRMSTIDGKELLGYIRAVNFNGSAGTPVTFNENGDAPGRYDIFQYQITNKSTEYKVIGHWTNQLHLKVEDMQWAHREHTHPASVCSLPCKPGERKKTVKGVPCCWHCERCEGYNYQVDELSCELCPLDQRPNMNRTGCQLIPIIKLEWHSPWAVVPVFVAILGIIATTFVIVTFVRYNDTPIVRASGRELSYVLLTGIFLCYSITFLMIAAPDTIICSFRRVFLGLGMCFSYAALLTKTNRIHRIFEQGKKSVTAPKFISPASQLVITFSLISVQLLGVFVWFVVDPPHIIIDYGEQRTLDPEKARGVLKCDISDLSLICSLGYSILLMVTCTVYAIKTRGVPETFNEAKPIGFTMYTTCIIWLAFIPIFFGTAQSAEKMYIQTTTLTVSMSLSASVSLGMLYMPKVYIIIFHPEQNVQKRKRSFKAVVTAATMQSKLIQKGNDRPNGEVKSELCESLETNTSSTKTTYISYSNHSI
# [7] = molecular target: Metabotropic glutamate receptor 2 (Homo sapiens, UniProt Q14416); test: Activity at mGlu2 receptor (unknown origin) expressed in HEK293 cells pre-treated for 15 mins before addition of EC80 concentration of reference agonist for another 15 mins by cAMP accumulation assay; type: functional, cell-based
# Metabotropic glutamate receptor 2, sequence (Q14416 whole entry): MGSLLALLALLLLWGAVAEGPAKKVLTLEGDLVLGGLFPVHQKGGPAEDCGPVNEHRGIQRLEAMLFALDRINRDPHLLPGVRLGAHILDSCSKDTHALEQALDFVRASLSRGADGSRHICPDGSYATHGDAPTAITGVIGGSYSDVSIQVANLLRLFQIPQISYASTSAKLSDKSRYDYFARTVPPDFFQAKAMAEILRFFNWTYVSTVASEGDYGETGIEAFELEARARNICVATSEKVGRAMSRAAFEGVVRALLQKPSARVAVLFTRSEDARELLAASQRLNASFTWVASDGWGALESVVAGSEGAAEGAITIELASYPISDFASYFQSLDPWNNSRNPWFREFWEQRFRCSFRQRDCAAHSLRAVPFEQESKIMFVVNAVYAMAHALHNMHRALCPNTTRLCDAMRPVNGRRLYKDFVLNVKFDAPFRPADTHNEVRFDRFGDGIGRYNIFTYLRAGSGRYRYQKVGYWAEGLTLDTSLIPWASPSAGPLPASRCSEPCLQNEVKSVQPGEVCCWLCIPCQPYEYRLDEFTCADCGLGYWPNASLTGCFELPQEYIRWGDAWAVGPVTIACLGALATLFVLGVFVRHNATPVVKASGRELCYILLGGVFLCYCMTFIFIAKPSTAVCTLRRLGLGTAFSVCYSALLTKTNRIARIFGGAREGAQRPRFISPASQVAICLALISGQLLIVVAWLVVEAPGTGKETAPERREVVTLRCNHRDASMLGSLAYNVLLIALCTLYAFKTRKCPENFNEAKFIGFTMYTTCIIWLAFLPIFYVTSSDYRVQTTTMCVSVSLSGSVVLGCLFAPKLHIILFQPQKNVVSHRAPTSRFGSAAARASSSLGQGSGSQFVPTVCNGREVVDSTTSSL
# [8] = molecular target: Metabotropic glutamate receptor 6 (Homo sapiens, UniProt O15303); test: Activity at mGlu6 receptor (unknown origin) expressed in HEK293 cells pre-treated for 15 mins before addition of EC80 concentration of reference agonist for another 15 mins by cAMP accumulation assay; type: functional, cell-based
# [9] = molecular target: Metabotropic glutamate receptor 5 (Homo sapiens, UniProt P41594); test: Activity at mGlu5 receptor (unknown origin) expressed in HEK293 cells by Ca2+ mobilization assay; type: functional, cell-based
# Metabotropic glutamate receptor 5, sequence (P41594 whole entry): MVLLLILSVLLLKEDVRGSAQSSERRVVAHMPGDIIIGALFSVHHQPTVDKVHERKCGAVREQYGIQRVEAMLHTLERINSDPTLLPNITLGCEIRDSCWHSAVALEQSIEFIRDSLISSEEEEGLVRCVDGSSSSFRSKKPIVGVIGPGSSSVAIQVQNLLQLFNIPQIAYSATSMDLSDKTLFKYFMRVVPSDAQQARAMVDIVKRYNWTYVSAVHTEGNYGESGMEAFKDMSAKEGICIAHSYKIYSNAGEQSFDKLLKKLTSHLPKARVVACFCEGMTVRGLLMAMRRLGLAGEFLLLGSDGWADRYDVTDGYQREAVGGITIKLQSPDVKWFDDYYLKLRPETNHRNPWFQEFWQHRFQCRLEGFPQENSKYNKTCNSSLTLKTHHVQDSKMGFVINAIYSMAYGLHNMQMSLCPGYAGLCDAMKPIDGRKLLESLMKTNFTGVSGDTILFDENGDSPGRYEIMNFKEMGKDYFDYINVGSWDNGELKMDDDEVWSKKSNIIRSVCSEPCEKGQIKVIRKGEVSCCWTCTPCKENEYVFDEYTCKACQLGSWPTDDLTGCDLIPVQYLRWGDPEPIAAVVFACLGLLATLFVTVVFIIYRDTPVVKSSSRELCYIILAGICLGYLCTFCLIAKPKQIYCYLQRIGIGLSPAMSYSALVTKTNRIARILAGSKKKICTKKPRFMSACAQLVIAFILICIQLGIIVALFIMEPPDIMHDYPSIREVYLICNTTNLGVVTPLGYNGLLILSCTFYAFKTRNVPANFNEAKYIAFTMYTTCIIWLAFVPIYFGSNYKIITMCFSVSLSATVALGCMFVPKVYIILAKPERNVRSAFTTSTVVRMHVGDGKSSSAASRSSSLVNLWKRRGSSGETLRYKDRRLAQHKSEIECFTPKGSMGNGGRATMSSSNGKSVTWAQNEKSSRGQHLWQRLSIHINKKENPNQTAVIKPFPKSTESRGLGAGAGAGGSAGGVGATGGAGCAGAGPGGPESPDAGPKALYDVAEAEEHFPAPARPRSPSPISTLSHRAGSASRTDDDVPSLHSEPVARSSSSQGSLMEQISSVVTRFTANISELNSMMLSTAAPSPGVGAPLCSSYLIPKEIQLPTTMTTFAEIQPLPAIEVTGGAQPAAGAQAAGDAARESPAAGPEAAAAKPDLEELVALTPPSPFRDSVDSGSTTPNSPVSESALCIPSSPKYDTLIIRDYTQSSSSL
# T1 sequence (Q14833 whole entry): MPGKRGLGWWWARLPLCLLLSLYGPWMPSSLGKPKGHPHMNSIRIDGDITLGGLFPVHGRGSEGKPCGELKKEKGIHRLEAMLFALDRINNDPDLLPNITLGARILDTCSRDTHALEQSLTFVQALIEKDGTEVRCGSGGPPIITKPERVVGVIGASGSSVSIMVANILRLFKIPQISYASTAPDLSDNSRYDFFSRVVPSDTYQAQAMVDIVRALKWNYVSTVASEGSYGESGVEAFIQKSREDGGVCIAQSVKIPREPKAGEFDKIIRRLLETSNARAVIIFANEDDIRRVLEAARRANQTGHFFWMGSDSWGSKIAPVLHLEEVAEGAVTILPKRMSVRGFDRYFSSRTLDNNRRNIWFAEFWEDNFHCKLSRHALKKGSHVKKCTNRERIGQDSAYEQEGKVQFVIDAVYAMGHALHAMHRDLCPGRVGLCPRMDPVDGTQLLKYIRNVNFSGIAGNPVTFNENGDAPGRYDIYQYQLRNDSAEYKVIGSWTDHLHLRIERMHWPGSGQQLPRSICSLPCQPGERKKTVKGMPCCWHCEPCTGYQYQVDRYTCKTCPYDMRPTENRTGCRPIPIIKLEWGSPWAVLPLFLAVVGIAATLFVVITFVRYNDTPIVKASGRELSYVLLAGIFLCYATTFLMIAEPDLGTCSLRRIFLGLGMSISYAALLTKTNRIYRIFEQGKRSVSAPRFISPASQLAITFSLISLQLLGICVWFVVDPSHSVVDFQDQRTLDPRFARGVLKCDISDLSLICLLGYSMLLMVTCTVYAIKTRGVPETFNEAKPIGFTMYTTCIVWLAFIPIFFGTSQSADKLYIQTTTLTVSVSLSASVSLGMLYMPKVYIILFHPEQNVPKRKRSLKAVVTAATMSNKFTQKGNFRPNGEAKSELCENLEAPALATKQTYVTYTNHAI
compound,measurement,setting,value
CSc1cccc(NC(=O)c2ccccn2)c1,IC50,[1],0.0049 µM
c1cnc(Nc2nc3c(s2)CCCc2[nH]ncc2-3)nc1,EC50,[2],0.009 µM
COc1cc(NC(=O)c2cccc(F)n2)ccc1Cl,IC50,[1],0.0073 µM
Cc1ccnc(Nc2nc(-c3cn[nH]c3)c(C)s2)n1,t1/2,Liver microsome,7 min
same,Peff,[3],2570 nm/s
same,EC50,[4],0.009 µM
COc1cc(NC(=O)c2ccccn2)ccc1Br,IC50,[1],0.322 µM
COc1cc(NC(=O)c2ccccn2)ccc1I,IC50,[1],0.146 µM
COc1cccc(NC(=O)c2ccccn2)c1,IC50,[1],0.0137 µM
O=C(Nc1cccc(OC(F)F)c1)c1cccc(F)n1,IC50,[1],0.0067 µM
COc1cc(NC(=O)c2cccc(F)n2)ccc1F,IC50,[1],0.0892 µM
N#Cc1cccc(NC(=O)c2ccccn2)c1,IC50,[1],0.0104 µM
N#Cc1cc(NC(=O)c2ccccn2)ccc1F,IC50,[1],0.0074 µM
N#Cc1cc(NC(=O)c2ccccn2)ccc1Cl,IC50,[1],0.0053 µM
N#Cc1cc(NC(=O)c2ccccn2)ccc1Br,IC50,[1],0.047 µM
N#Cc1cc(NC(=O)c2ccccn2)ccc1I,IC50,[1],0.172 µM
O=C(Nc1ccc(Cl)c(OCF)c1)c1ccccn1,IC50,[1],0.0032 µM
same,t1/2,Liver microsome,5.8 min
same,Peff,[3],2720 nm/s
[2H]C([2H])(F)Oc1cc(NC(=O)c2ccccn2)ccc1Cl,IC50,[5],> 30 µM
same,IC50,[1],0.0032 µM
same,IC50,[6],> 30 µM
same,t1/2,Liver microsome,7.4 min
same,IC50,[7],> 30 µM
same,IC50,[8],> 30 µM
same,IC50,[9],> 30 µM
[2H]C([2H])(F)Oc1cccc(NC(=O)c2ccccn2)c1,IC50,[1],0.0037 µM
O=C(Nc1cccc(OC(F)F)c1)c1ccccn1,t1/2,Liver microsome,5.2 min
same,Peff,[3],2140 nm/s
COc1cc(NC(=O)c2ccccn2)ccc1F,IC50,[1],0.0316 µM
O=C(Nc1cccc(Cl)c1)c1ccccn1,EC50,[4],0.33 µM
same,EC50,[2],1.2 µM
COc1cc(NC(=O)c2ccccn2)ccc1Cl,t1/2,Liver microsome,4.9 min
same,Peff,[3],2560 nm/s
